{"source": "BindingDB's records for doi:10.1016/j.ejmech.2019.111668", "about": "(Yantai University, 2019)", "key": {"[1]": {"assay": "Reversal of P-gp-mediated multidrug resistance in human KBV cells assessed as potentiation of irinotecan-induced cytotoxicity by measuring irinotecan IC50 at 5 uM after 72 hrs by MTT assay (Rvb = 49.2 +/- 0.46 nM)"}, "[2]": {"assay": "Reversal of P-gp-mediated multidrug resistance in human KBV cells assessed as potentiation of irinotecan-induced cytotoxicity by measuring irinotecan IC50 at 10 uM after 72 hrs by MTT assay (Rvb = 49.2 +/- 0.46 nM)"}, "[3]": {"assay": "Reversal of P-gp-mediated multidrug resistance in human KBV cells assessed as potentiation of paclitaxel-induced cytotoxicity by measuring paclitaxel IC50 at 5 uM after 72 hrs by MTT assay (Rvb = 352.31 +/- 10.9 nM)"}, "[4]": {"assay": "Reversal of P-gp-mediated multidrug resistance in human KBV cells assessed as potentiation of vincristine-induced cytotoxicity by measuring vincristine IC50 at 5 uM after 72 hrs by MTT assay (Rvb = 2.92 +/- 0.31 nM)"}, "[5]": {"assay": "Reversal of P-gp-mediated multidrug resistance in human KBV cells assessed as potentiation of paclitaxel-induced cytotoxicity by measuring paclitaxel IC50 at 10 uM after 72 hrs by MTT assay (Rvb = 352.31 +/- 10.9 nM)"}, "[6]": {"assay": "Reversal of P-gp-mediated multidrug resistance in human KBV cells assessed as potentiation of vincristine-induced cytotoxicity by measuring vincristine IC50 at 10 uM after 72 hrs by MTT assay (Rvb = 2.92 +/- 0.31 nM)"}}}
{"smiles": "CC(=O)O[C@H]1C[C@@]2(C)[C@@H](C[C@@H](O)[C@H]3[C@@]4(C)CC[C@@H](O)[C@@H](C)[C@@H]4CC[C@@]32C)/C1=C(\\CCC=C(C)C)C(=O)OCc1ccccc1", "values": [{"measurement": "IC50", "setting": "[1]", "result": 37200, "unit": "nM"}, {"measurement": "IC50", "setting": "[2]", "result": 16200, "unit": "nM"}, {"measurement": "IC50", "setting": "[3]", "result": 17, "unit": "nM"}, {"measurement": "IC50", "setting": "[4]", "result": 144, "unit": "nM"}, {"measurement": "IC50", "setting": "[5]", "result": 7, "unit": "nM"}, {"measurement": "IC50", "setting": "[6]", "result": 92, "unit": "nM"}]}
